# From patent publication US9237747B2, “Herbicidal compositions comprising 4-amino-3-chloro-5-fluoro-6-(4-chloro-2-fluoro-3-methoxyphenyl) pyridine-2-carboxylic acid or a derivative thereof and insecticides” (priority 2013, dated 2016)
# Structures can show the parent of a compound that is named as a salt. Where two headings read alike, the source gives them in different places.
# Assays:
# ECHCG = assay type: in vivo, Echinochloa crus-galli
# Experimental: (§1) Seeds or nutlets of the desired test plant species were planted in a soil matrix prepared by mixing a loam or sandy loam soil (e.g., 28.6 percent silt, 18.8 percent clay, and 52.6 percent sand, with a pH of about 5.8 and an organic matter content of about 1.8 percent) and calcareous grit in an 80 to 20 ratio. The soil matrix was contained in plastic pots with a volume of 1 quart and a surface area of 83.6 square centimeters (cm^2). […] The plants were grown for 8-22 days in a greenhouse with an approximate 14 hour (h) photoperiod which was maintained at about 29° C. during the day and 26° C. during the night. Nutrients (Peters Excel® 15-5-15 5-Ca 2-Mg and iron chelate) were applied in the irrigation solution as needed and water was added on a regular basis. Supplemental lighting was provided with overhead metal halide 1000-Watt lamps as necessary. The plants were employed for testing when they reached the first through fourth true leaf stage.
# (§2) Treatments consisted of the acid or esters of 4-amino-3-chloro-6-(4-chloro-2-fluoro-3-methoxyphenyl)-5-fluoropyridine-2-carboxylic acid (Compound A), each formulated as an SC (suspension concentrate), and various insecticidal components alone and in combination. Forms of compound A were applied on an acid equivalent basis.
# (§3) For treatments comprised of formulated compounds, measured amounts of compounds were placed individually in 25 mL glass vials and diluted in a volume of 1.25% volume per volume (v/v) Agri-Dex® crop oil concentrate to obtain 12× stock solutions. […] Application solutions were prepared by adding an appropriate amount of each stock solution (e.g., 1 mL) and diluted to the appropriate final concentrations with the addition of […] of an aqueous mixture of 1.25% (v/v) crop oil concentrate so that the final spray solutions contained 1.25+/−0.05% (v/v) crop oil concentrate.
# (§4) As required, additional water and/or 97:3 v/v acetone/DMSO was added to individual application solutions so that the final acetone and DMSO concentrations of the application solutions being compared were 8.1% and 0.25%, respectively.
# (§5) All stock solutions and applications solutions were visually inspected for compound compatibility prior to application. Spray solutions were applied to the plant material with an overhead Mandel track sprayer equipped with 8002E nozzles calibrated to deliver 187 L/ha over an application area of 0.503 square meters (m^2) at a spray height of 18 to 20 inches (46 to 50 cm) above average plant canopy height. Control plants were sprayed in the same manner with the solvent blank.
# (§6) The treated plants and control plants were placed in a greenhouse as described above and watered by sub-irrigation to prevent wash-off of the test compounds. After approximately 3 weeks, the condition of the test plants as compared to that of the untreated plants was determined visually and scored on a scale of 0 to 100 percent where 0 corresponds to no injury or growth inhibition and 100 corresponds to complete kill.
# (§7) Colby's equation was used to determine the herbicidal effects expected from the mixtures (Colby, S. R. Calculation of the synergistic and antagonistic response of herbicide combinations. Weeds 1967, 15, 20-22.).
# (§8) The following equation was used to calculate the expected activity of mixtures containing two active ingredients, A and B: Expected=A+B−(A×B/100)
# IPOHE = assay type: in vivo, Ipomoea hederacea
# Experimental: as §1, §2, §3, §4, §5, §6, §7, §8
# BRAPP = assay: Postemergence foliar-applied weed control, direct-seeded rice (greenhouse); assay type: in vivo, Brachiaria platyphylla
# Source text: (§9) Seeds or nutlets of the desired test plant species were planted in a soil matrix prepared by mixing a loam or sandy loam soil (e.g., 28.6 percent silt, 18.8 percent clay, and 52.6 percent sand, with a pH of about 5.8 and an organic matter content of about 1.8 percent) and calcareous grit in an 80 to 20 ratio. The soil matrix was contained in plastic pots with a volume of 1 quart and a surface area of 83.6 square centimeters (cm^2). When required to ensure good germination and healthy plants, a fungicide treatment and/or other chemical or physical treatment was applied. The plants were grown for 8-22 days in a greenhouse with an approximate 14 hour (h) photoperiod which was maintained at about 29° C. during the day and 26° C. during the night. Nutrients (Peters Excel® 15-5-15 5-Ca 2-Mg and iron chelate) were applied in the irrigation solution as needed and water was added on a regular basis. Supplemental lighting was provided with overhead metal halide 1000-Watt lamps as necessary. The plants were employed for testing when they reached the first through fourth true leaf stage.
# as §2
# (§10) Treatment requirements were calculated based upon the rates being tested, the concentration of active ingredient or acid equivalent in the formulation, and a 12 milliliter (mL) application volume at a rate of 187 liters per hectare (L/ha).
# as §3, §4, §5, §6, §7, §8
# DIGSA = assay type: in vivo, Digitaria sanguinalis
# Experimental: as §1, §2, §3, §4, §5, §6, §7, §8
# ECHCO = assay: Postemergence foliar-applied weed control, direct-seeded rice (greenhouse); assay type: in vivo, Echinochloa colonum
# Experimental: as §1, §2, §3, §4, §5, §6, §7, §8
# LEFCH = assay: whole plant or invertebrate; assay type: in vivo, Leptochloa chinensis
# Experimental: as §1, §2, §3, §4, §5, §6, §7, §8
# LEFFA = assay: Postemergence foliar-applied weed control, direct-seeded rice (greenhouse); assay type: in vivo, Leptochloa fascicularis
# Source text: as §9, §2, §10, §3, §4, §5, §6, §7, §8
compound,measurement,setting,value
"CN(C)C(CSC(N)=O)CSC(N)=O [Cartap Hydrochloride, S,S′-(2-dimethylaminotrimethylene)bis(thiocarbamate), reference compound]",Visual Weed Control (%) - 22 DAA ECHCG Obs,ECHCG; 250 g ai/ha alone,0%
same,Visual Weed Control (%) - 22 DAA ECHCG Obs,ECHCG; 500 g ai/ha alone,0%
same,Visual Weed Control (%) - 22 DAA IPOHE Obs,IPOHE; 250 g ai/ha alone,10%
same,Visual Weed Control (%) - 22 DAA IPOHE Obs,IPOHE; 500 g ai/ha alone,0%
"CCOP(=S)(OCC)Oc1nc(Cl)c(Cl)cc1Cl [Chlorpyrifos, O,O-diethyl O-3,5,6-trichloro-2-pyridyl phosphorothioate]",Visual Weed Control (%) - 20 DAA BRAPP Obs,BRAPP; 180 g ai/ha alone,0%
same,Visual Weed Control (%) - 20 DAA BRAPP Obs,BRAPP; 360 g ai/ha alone,0%
same,Visual Weed Control (%) - 20 DAA BRAPP Obs,BRAPP; 720 g ai/ha alone,0%
same,Visual Weed Control (%) - 20 DAA DIGSA Obs,DIGSA; 180 g ai/ha alone,0%
same,Visual Weed Control (%) - 22 DAA DIGSA Obs,DIGSA; 180 g ai/ha alone,0%
same,Visual Weed Control (%) - 20 DAA DIGSA Obs,DIGSA; 360 g ai/ha alone,0%
same,Visual Weed Control (%) - 22 DAA DIGSA Obs,DIGSA; 360 g ai/ha alone,0%
same,Visual Weed Control (%) - 20 DAA DIGSA Obs,DIGSA; 500 g ai/ha alone,0%
same,Visual Weed Control (%) - 20 DAA DIGSA Obs,DIGSA; 720 g ai/ha alone,0%
same,Visual Weed Control (%) - 22 DAA DIGSA Obs,DIGSA; 720 g ai/ha alone,0%
same,Visual Weed Control (%) - 20 DAA ECHCG Obs,ECHCG; 180 g ai/ha alone,0%
same,Visual Weed Control (%) - 20 DAA ECHCG Obs,ECHCG; 360 g ai/ha alone,0%
same,Visual Weed Control (%) - 20 DAA ECHCG Obs,ECHCG; 720 g ai/ha alone,0%
same,Visual Weed Control (%) - 20 DAA ECHCO Obs,ECHCO; 180 g ai/ha alone,0%
same,Visual Weed Control (%) - 20 DAA ECHCO Obs,ECHCO; 360 g ai/ha alone,0%
same,Visual Weed Control (%) - 20 DAA ECHCO Obs,ECHCO; 720 g ai/ha alone,0%
same,Visual Weed Control (%) - 20 DAA IPOHE Obs,IPOHE; 180 g ai/ha alone,10%
same,Visual Weed Control (%) - 20 DAA IPOHE Obs,IPOHE; 360 g ai/ha alone,10%
same,Visual Weed Control (%) - 20 DAA IPOHE Obs,IPOHE; 720 g ai/ha alone,0%
same,Visual Weed Control (%) - 20 DAA LEFCH Obs,LEFCH; 180 g ai/ha alone,0%
same,Visual Weed Control (%) - 20 DAA LEFCH Obs,LEFCH; 360 g ai/ha alone,0%
same,Visual Weed Control (%) - 20 DAA LEFCH Obs,LEFCH; 500 g ai/ha alone,0%
same,Visual Weed Control (%) - 20 DAA LEFCH Obs,LEFCH; 720 g ai/ha alone,0%
same,pest or weed control at 720 g/ha,"LEFCH; Dinebra chinensis, post-emergence, 528 h, 720 g ai/ha alone, read-out: Visual Weed Control (%) - 22 DAA LEFCH Obs",5%
same,Visual Weed Control (%) - 22 DAA LEFFA Obs,LEFFA; 180 g ai/ha alone,0%
same,Visual Weed Control (%) - 22 DAA LEFFA Obs,LEFFA; 360 g ai/ha alone,0%
same,Visual Weed Control (%) - 22 DAA LEFFA Obs,LEFFA; 720 g ai/ha alone,0%
"N#Cc1nn(-c2c(Cl)cc(C(F)(F)F)cc2Cl)c(N)c1[S+]([O-])C(F)(F)F [Fipronil, 5-amino-[2,6-dichloro-4-(trifluoromethyl)phenyl]-4-[(1R,S)-(trifluoromethyl)sulfinyl]-1H-pyrazole-3-carbonitrile, reference compound]",Visual Weed Control (%) - 20 DAA BRAPP Obs,BRAPP; 50 g ai/ha alone,0%
same,Visual Weed Control (%) - 20 DAA ECHCG Obs,ECHCG; 50 g ai/ha alone,0%
"COP(N)(=O)SC (stereo not drawn) [Methamidophos, O,S-dimethyl phosphoramidothioate, reference compound]",Visual Weed Control (%) - 19 DAA ECHCO Obs,ECHCO; 112 g ai/ha alone,0%
same,Visual Weed Control (%) - 19 DAA ECHCO Obs,ECHCO; 224 g ai/ha alone,0%
same,Visual Weed Control (%) - 19 DAA IPOHE Obs,IPOHE; 112 g ai/ha alone,0%
same,Visual Weed Control (%) - 19 DAA IPOHE Obs,IPOHE; 224 g ai/ha alone,0%
spinetoram,Visual Weed Control (%) - 19 DAA ECHCO Obs,ECHCO; 30 g ai/ha alone,0%
same,Visual Weed Control (%) - 19 DAA ECHCO Obs,ECHCO; 60 g ai/ha alone,0%
same,Visual Weed Control (%) - 19 DAA ECHCO Obs,ECHCO; 120 g ai/ha alone,0%
same,Visual Weed Control (%) - 19 DAA LEFCH Obs,LEFCH; 30 g ai/ha alone,0%
same,Visual Weed Control (%) - 19 DAA LEFCH Obs,LEFCH; 60 g ai/ha alone,0%
same,Visual Weed Control (%) - 19 DAA LEFCH Obs,LEFCH; 120 g ai/ha alone,0%
spinosad [reference compound],Visual Weed Control (%) - 21 DAA IPOHE Obs,IPOHE; 70 g ai/ha alone,0%
same,Visual Weed Control (%) - 21 DAA IPOHE Obs,IPOHE; 140 g ai/ha alone,0%
same,Visual Weed Control (%) - 21 DAA IPOHE Obs,IPOHE; 280 g ai/ha alone,0%
same,Visual Weed Control (%) - 21 DAA LEFCH Obs,LEFCH; 140 g ai/ha alone,0%
same,Visual Weed Control (%) - 21 DAA LEFCH Obs,LEFCH; 280 g ai/ha alone,0%
